# From patent EP0105872B1, “NOVEL COSMETIC COMPOSITIONS CONTAINING PRENYLAMINE AND A PROCESS FOR THEIR PREPARATION” (CAOLA KOZMETIKAI ES HAZTARTÄSVEGYIPARI VALLALAT, priority 1982, dated 1983)
# Assays:
# Gram-positive = conditions: cited from earlier work
# Gram-negative = conditions: cited from earlier work
# Yeast = conditions: cited from earlier work
# Fungi = conditions: cited from earlier work
# Staphylococcus aureus = assay: Minimum inhibition concentration of prenilamine; format: cell-based
# Staphylococcus epidermis = assay: Minimum inhibition concentration of prenilamine; format: cell-based
# [1] = system: Streptococcus haemolyticus; assay: Minimum inhibition concentration of prenilamine; format: cell-based
# Streptococcus mitis = assay: Minimum inhibition concentration of prenilamine; format: cell-based
# Streptococcus pneumoniae = assay: Minimum inhibition concentration of prenilamine; format: cell-based
# Streptococcus mutans = assay: Minimum inhibition concentration of prenilamine; format: cell-based
# [2] = system: Lactobacillus acidophilus; assay: Minimum inhibition concentration of prenilamine; format: cell-based
# [3] = system: Corynebacterium diphtherise; assay: Minimum inhibition concentration of prenilamine; format: cell-based
# Listeria monocytogenes = assay: Minimum inhibition concentration of prenilamine; format: cell-based
# Haemophilus influensae = assay: Minimum inhibition concentration of prenilamine; format: cell-based
# Neisseria pharingis = assay: Minimum inhibition concentration of prenilamine; format: cell-based
# Candida albicans = assay: Minimum inhibition concentration of prenilamine; format: cell-based
# Solubility in water = format: physicochemical
structure (smiles),measurement,setting,value
O=C(OCc1ccccc1)c1ccc(O)cc1 [Benzyl paraben],Minimum Inhibition Concentration,Gram-positive,50 µg/mL
same,Minimum Inhibition Concentration,Gram-negative,200 µg/mL
same,Minimum Inhibition Concentration,Yeast,100 µg/mL
same,Minimum Inhibition Concentration,Fungi,75 µg/mL
"Oc1c(Cl)cc(Cl)c(Cl)c1Cc1c(O)c(Cl)cc(Cl)c1Cl [Hexachlorophene, 3,3',4,4',6,6'-hexachloro-2,2'-methylene-diphenoi]",Minimum Inhibition Concentration,Gram-positive,1—10 µg/ml
"COC(=O)c1ccc(O)cc1 [Methyl paraben, p-hydroxybenzoic acid methylester]",Minimum Inhibition Concentration,Gram-positive,800 µg/mL
same,Minimum Inhibition Concentration,Gram-negative,1000 µg/mL
same,Minimum Inhibition Concentration,Yeast,1000 µg/mL
same,Minimum Inhibition Concentration,Fungi,500 µg/mL
"CC(Cc1ccccc1)NCCC(c1ccccc1)c1ccccc1 (stereo not shown) [prenilamine, 3,3-diphenylpropyl-1-methylphenethylamine]",MIC,Staphylococcus aureus,30 mg/L
same,Nature of effect,Staphylococcus aureus,bactericide
same,MIC,Staphylococcus epidermis,30 mg/L
same,Nature of effect,Staphylococcus epidermis,bactericide
same,MIC,[1],5 mg/L
same,Nature of effect,[1],bactericide
same,MIC,Streptococcus mitis,5 mg/L
same,Nature of effect,Streptococcus mitis,bactericide
same,MIC,Streptococcus pneumoniae,30 mg/L
same,Nature of effect,Streptococcus pneumoniae,bactericide
same,MIC,Streptococcus mutans,5 mg/L
same,Nature of effect,Streptococcus mutans,bactericide
same,MIC,[2],5 mg/L
same,Nature of effect,[2],bactericide
same,MIC,[3],10 mg/L
same,Nature of effect,[3],bactericide
same,MIC,Listeria monocytogenes,10 mg/L
same,Nature of effect,Listeria monocytogenes,bactericide
same,MIC,Haemophilus influensae,60 mg/L
same,Nature of effect,Haemophilus influensae,bactericide
same,MIC,Neisseria pharingis,20 mg/L
same,Nature of effect,Neisseria pharingis,bactericide
same,MIC,Candida albicans,100 mg/L
same,Nature of effect,Candida albicans,fungicide
same,solubility in water,Solubility in water,do not dissolve well in water
